The record followed here is patent US9072729B2, “Method for treating fibrosis and cancer with imidazolium and imidazolinium compounds” (Agency for Science, Technology and Research, priority 2008, dated 2015).

Read-outs that look alike come from different tables or passages of the source.

Holding throughout (assay type): cell-based, rat
One assay concerns HSC T6 cells. The assay is described as follows: MTS based proliferation assay (cytotoxicity) on cultured HSC-T6 cells. The settings on record: for inhibition of cell proliferation: 48 h, 10% FBS DMEM; for IC50: read-out: IC50 (toxicity on T6 cells). As to the method: FIG. 1. Cytotoxicity of (a) DBZIM and (b) TDBZIM. […] The signal was normalized against a vehicle control treatment (0 μM of compound). The data were obtained from four independent experiments, and presented as mean and standard error or mean (SEM), *^aP<0.05, *^bP<0.01 and *^cP<0.005.
Firstly we assessed the cytotoxicity of DBZIM and TDBZIM on cultured HSC-T6 cells using a 3-(4,5-dimethylthiazol-2-yl)-5-(3-carboxymethoxyphenyl)-2-(4-sulfophenyl)-2H-tetrazolium (MTS) based proliferation assay kit (Promega, Wis., USA). […]
(Tetrazolium dyes change colour on reduction, which living cells bring about.)

The subject of another assay is IL-6. The assay is described as follows: Real-time RT-PCR of IL-6 mRNA in HSC T6 cells. The settings on record: for inhibition of IL-6 transcription: 48 h. As to the method:
FIG. 10. DBZIM and TDBZIM suppressed IL-6 mRNA. HSC T6 cells were incubated with DBZIM (1, 10, 100 and 300 μM) and (b) TDBZIM (1, 10 and 100 μM) for 48 h for the dosage-dependent study, and (c) with DBZIM (100 μM) and TDBZIM (100 μM) for 8, 24 and 48 h for the time-dependent study. The expression level of IL-6 mRNA was quantified with real-time RT-PCR. The data were presented as mean and SEM, N=6, *^bP<0.01, *^cP<0.005, and *^dP<0.0005, when compared to the vehicle control.
(§1) Total RNA was isolated using NucleoSpin RNAII isolation kit (Nacherey & Nagel, Germany), and quantified by ND-100 spectrophotometer (Nanodrop Technologies, DE, USA). The details of real-time RT-PCR were reported elsewhere (Zhang et al. 2006). Briefly, it was a two-step real-time RT-PCR using Taqman chemistry. Total RNA was first reverse transcribed to cDNA, and real-time PCR was run and detected in ABI 7500 Fast Real-Time PCR System (Applied Biosystems, CA, USA). Primers and probes for rat GFAP, SMAA, collagen Ia1, fibronectin, TGF-β1, TGF-β receptor I (TGFβ RI) and IL-6 were ordered from Taqman's assay-on-demand database. Rat β-actin was used as normalization gene, and its expression level was constant (CT difference was <±0.5) throughout the experimental settings in this study. Relative quantification of target mRNA was calculated using comparative threshold cycle method (ΔΔCT) as described in User Bulletin #2 (ABI Prism 7700 Sequence Detection System). Relative quantification was given by 2^−ΔΔCT to express the up-regulation or down regulation of the target gene under the treatments compared to the control.
A general note: Quantitative PCR measures a nucleic acid by following its amplification.

The test system of a further assay is TGF-β1. As to the kind of experiment: Real-time RT-PCR of TGF-β1 mRNA in HSC T6 cells. The settings on record: 48 h. Here is the method:
FIG. 9. DBZIM and TDBZIM suppressed TGF-β1 mRNA. HSC T6 cells were incubated with (a) DBZIM (1, 10, 100 and 300 μM) and (b) TDBZIM (1, 10 and 100 μM) for 48 h for the dosage-dependent study, and (c) with DBZIM (100 μM) and TDBZIM (100 μM) for 8, 24 and 48 h for the time-dependent study. The expression level of TGF-β1 mRNA was quantified with real-time RT-PCR. The data were presented as mean and SEM, N=6, *^aP<0.05, *^bP<0.01, *^cP<0.005, when compared to vehicle control.
as §1

The next assay relates to GFAP. As to the kind of experiment: Real-time RT-PCR of GFAP mRNA in HSC T6 cells. Here is the method:
FIG. 6. (a) DBZIM and (b) TDBZIM suppressed the mRNA expression of HSC activation markers (GFAP and SMAA) and fibrotic endpoints (col1a1 and fibronectin) in a dosage-dependent manner. […] The ΔΔCt method was used for relative quantification with vehicle control sample being the calibrator. The data were presented as mean and SEM, N=6, *^aP<0.05, *^bP<0.01, *^cP<0.005, and *^dP<0.0005, when compared to the vehicle control. FIG. 7. DBZIM (100 μM) and TDBZIM (100 μM) suppressed (a) GFAP, (b) SMAA, (c) col1a1 and (d) fibronectin mRNA expression in a time-dependent manner. HSC T6 cells were treated with DBZIM and TDBZIM, and assayed after 8, 24 and 48 h. […] FIG. 14. […] (50 μM), […] (50 μM), […] (10 μM) and DBZBIM (100 μM) were dissolved in DMSO with a final DMSO concentration of 0.2% (v/v). DPIM (2 mM), EGCG (25 μM) and DBZIM (100 μM) were dissolved in H2O. β-actin was used as the normalization gene; its expression was constant under the experimental conditions. Relative quantification was normalized against the respective vehicle control. The data were presented as mean and SEM, N=6, *^aP<0.05, *^cP<0.005, and *^dP<0.0005, when compared to the vehicle control. Total RNA was isolated using NucleoSpin RNAII isolation kit ([…], Germany), and quantified by ND-100 spectrophotometer (Nanodrop Technologies, DE, USA). The details of real-time RT-PCR were reported elsewhere (Zhang et al. 2006). Briefly, it was a two-step real-time RT-PCR using Taqman chemistry. Total RNA was first reverse transcribed to cDNA, and real-time PCR was run and detected in ABI 7500 Fast Real-Time PCR System (Applied Biosystems, CA, USA). Primers and probes for rat GFAP, SMAA, collagen Ia1, fibronectin, TGF-β1, TGF-β receptor I (TGFβ RI) and IL-6 were ordered from Taqman's assay-on-demand database. Rat β-actin was used as normalization gene, and its expression level was constant (CT difference was <±0.5) throughout the experimental settings in this study. Relative quantification of target mRNA was calculated using comparative threshold cycle method (ΔΔCT) as described in User Bulletin #2 (ABI Prism 7700 Sequence Detection System). Relative quantification was given by 2^-ΔΔCT to express the up-regulation or down regulation of the target gene under the treatments compared to the control.

Where [1] appears, read: Rattus norvegicus, HSC-T6, HSC T6 cells.

The IC50 is the midpoint of a concentration-inhibition curve. As to `[Br-].c1ccc(Cn2cc[n+](Cc3ccccc3)c2)cc1` [DBZIM, 1,3-bisbenzylimidazolium bromide], in the assay on HSC T6 cells (DBZIM 250-400 μM), the “inhibition of cell proliferation” value is recorded as 3.5-8.9%. Moreover, the 50% inhibitory concentration (IC50) in the assay on HSC T6 cells (setting [1]) was found to be 1.7 mM. The “inhibition of IL-6 transcription” value with IL-6 (1 μM) is given as 37%; with IL-6 (10 μM) it was 46%; in the assay on IL-6 (100 μM) it was 53%; in the assay with IL-6 (300 μM), 59%. Moreover, the “suppression of IL-6 mRNA” value in the assay with IL-6 (100 μM, shorter treatment than 48 h (8, 24 h)) was “did not show statistically significant suppression”. The “suppression of TGF-β1 mRNA” value in the assay on TGF-β1 (100 μM) was 28%; with TGF-β1 (300 μM) it was 33%. Besides, the “decrease of GFAP mRNA” value with GFAP (10 μM, 48 h) is recorded as 18%; in the assay on GFAP (100 μM, 8 h), 28%; in the assay on GFAP (100 μM, 24 h) it was 40%; with GFAP (100 μM, 48 h) it was 56%; with GFAP (300 μM, 48 h), 86%.

Regarding `CC(C)n1cc[n+](C(C)C)c1.F[B-](F)(F)F` [DPIM, 1,3-diisopropylimidazolium tetrafluoroborate], the IC50 in the assay on HSC T6 cells (setting [1]) is 3.1 mM. For the same molecule, the “suppression of GFAP mRNA” value with GFAP (48 h, DPIM 2 mM, AMIM 50 μM, TMPHIM 50 μM, DBZBIM 100 μM) was 78%.

Consider “(−)-Epigallocatechin gallate [EGCG, reference compound]”, for which, in the assay with GFAP (EGCG 25 μM, 48 h), the “inhibition on HSC activation and fibrosis (GFAP, SMAA, fibronectin, col1a1 mRNA)” value is listed as “did not show significant inhibition”.

Regarding “1,3,5-tris(4-methyl-imidazolium)-linked cyclophane.3Br [TDBZIM]”, the 50% inhibitory concentration (IC50) in the assay on HSC T6 cells (HSC T6 cells) is around 0.5 mM. For the same molecule, the “inhibition of cell proliferation” value in the assay with HSC T6 cells (TDBZIM 125-200 μM) is 13-19%. Also, the “inhibition of IL-6 transcription” value was determined as 37% in the assay on IL-6 (1 μM), 55% in the assay with IL-6 (10 μM) and 80% in the assay on IL-6 (100 μM). The “inhibition of IL-6 mRNA expression” value with IL-6 (100 μM, 24 h) worked out at 52%. Besides, the “inhibition of TGF-β1 mRNA” value in the assay on TGF-β1 (regardless of dosage (1-100 μM)) was around 23%. Further, the “decrease of GFAP mRNA” value in the assay on GFAP (1 μM, 48 h) was determined as 32%; in the assay on GFAP (10 μM, 48 h), 20%; in the assay with GFAP (100 μM, 8 h), 30%; with GFAP (100 μM, 24 h) it was 36%; in the assay with GFAP (100 μM, 48 h), 60%.
